# From patent publication US10364263B2, “Cyclic phosphates and cyclic phosphoramidates for the treatment of neurologic disorders” (Retrophin, Inc., priority 2015, dated 2019)
# Like-named read-outs stand apart in the source and are kept apart here.
# Tests used:
# [1] = system: PANK2 silenced human neuroblastoma IMR32 cells (PANK2−/−); experiment: Coenzyme A assay in PANK2 silenced cells (LC-MS quantification of free CoA); type: cell-based; details: compound added twice (24 h + 24 h), relative to 0.1% DMSO controls
# Method in brief: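 Free intracellular CoA was measured by positive-mode LC-MS/MS of 20% TFA extracts, taking 2 μl per 10^6 cells as intracellular volume. Cells were IMR32 with stable lentiviral PANK2 knockdown, dosed twice 24 h apart (48 h total, 0.1% DMSO). Output is fold increase over vehicle.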
# [2] = Permeability in porcine brain endothelial cell blood-brain barrier model; type: in vitro ADME; details: pig (endothelial cells), co-cultured with rat astrocytes, pH 7.4, PBECs/As blood-brain barrier model, luminal to basal; Diastereoisomer A; read-out: Papp Diastereoisomer A
# Source text: Compounds disclosed herein show the potential to reach mammalian brain by crossing the blood-brain barrier (BBB) from systemic circulation. […] The porcine brain endothelial cell permeability assay is an in vitro BBB model to be used for the prediction of central nervous system (CNS) drug permeability in vivo and for ranking or prioritization of compounds according to their permeability. This system can also be used for mechanistic studies and drug delivery strategies via receptor-mediated transport (transcytosis). The system is a two-dimensional co-culture, non-contact model of two types of primary cells: primary brain endothelial cells obtained from fresh porcine brains, and primary rat astrocytes, obtained from neonatal rats. This ensures barrier formation and functional expression of key transporters.
# The endothelial cells were cultured on rat-tail collagen type I and human fibronectin coated Transwell polycarbonate inserts (surface area 0.7 cm^2; pore size 0.4 μm) and the inserts were placed in 24-well plates containing confluent rat astrocytes. This system allows for the formation of a differentiated BBB model suitable for compound permeability in 10 days.
# On the day of the experiment, culture medium was removed and cells were pre-incubated for 30 min with HBSS containing 20 mM Hepes pH 7.4 and 0.1% BSA. Donor volume (apical) was 400 μl and receiver volume (basal) 900 μl. Compounds were diluted in assay medium (at the desired concentration) and added to the luminal side (to mimic blood to brain passage). Transport was measured usually after 60 min by detecting the amount of compound from the basal (brain side). The integrity of the cell layers was assessed by measuring the transendothelial electrical resistance (TEER) and by monitoring FITC-dextran (40 KDa) permeation. Inserts with TEER values […] were selected for permeability studies. As FITC-dextran cannot freely permeate lipophilic barriers, a high degree of FITC-dextran transport indicates poor integrity of the cell layer and wells with high FITC-dextran permeability were excluded. FITC-dextran was included as internal control in each insert used for permeability studies. Fluorescence was measured using a fluorimetric detector. Radioactivity was measured by scintillation counting. For LC-MS/MS analysis, aliquots (200 μl) from the basal compartment were diluted with an equal volume of 100% acetonitrile containing 0.1% formic acid, centrifuged to remove cell debris, and evaporated under N2. After reconstitution, samples were analyzed by LC-MS/MS. Mass balance was determined considering the amount of compound recovered in the donor and receiver chamber at the end of the assay relative to the amount added to the donor chamber at time 0.
# Permeability was defined as the apparent permeability coefficient (Papp), which is a measure of the appearance rate of the compound in the receiver chamber, expressed in cm/s. Papp is calculated according the following equation: Papp[cm/sec]=Vd*ΔMr/A*Md*Δt, Equation 2: where
# Vd=volume in the donor compartment in cm^3 or mL;
# ΔMr=total amount of compound in the receiver compartment after t seconds;
# Md=donor amount (added at time 0)
# Δt=time measured in seconds
# A=filter area in cm^2 (for 24 well plate, A=0.7 cm^2).
# To correct for the contribution of filter and substrate, Papp was also determined for the cell-free system. Permeability of the endothelial cell layer was determined using the following equation: […], Equation 3: where
# Ptotal=the P of the total system,
# Pf=P for the cell-free filter, and
# Pe=P for the endothelial cell layer alone. In this equation, the total resistance of the system towards passage of a substance is additively composed of two […] resistances: that of the cell monolayer and that of the filter.
# [3] = Stability in human plasma; type: in vitro ADME; details: 37° C.
# Method in brief: (§1)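 Test compound at 3 μM (0.1% DMSO) was incubated in mouse or human plasma at 37 °C and sampled in duplicate at 0, 10, 20, 30, 40 and 60 min. Reactions were stopped with acetonitrile/formic acid containing internal standard. Remaining parent was measured by UPLC-MS/MS without a calibration curve.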
# [4] = Stability in mouse plasma; type: in vitro ADME
# Method in brief: as §1
# [5] = Stability in human hepatocytes; type: in vitro ADME; details: for half-life at 5 µM: t1/2, Human Hepatocytes; for half-life: 5 μM, 1 million cells/ml, 37° C., human hepatocytes
# Procedure: (§2) Stability in hepatocytes for select compounds disclosed in the application was evaluated in two species (mouse and human) according to the following procedure. Compounds and positive control samples were dissolved in 100% DMSO at 5 mM. Cryopreserved hepatocytes were thawed and resuspended in Hepatocyte Basal Medium (HBM-Lonza CC-3199) supplemented with CC-4182 (complete hepatocyte culture medium). Test compounds were diluted into cell suspension (1 million cells/ml) from the stock solutions to have a test compound concentration of 5 μM (0.1% DMSO). Incubation was performed in 24-well plates, at 37° C. in a DUBNOFF water bath, under low shaking. Each compound was tested at 6 time points, in duplicates (0, 15, 30, 60, 120 and 240 min). At each time point, an aliquot of 120 μl was taken and transferred to a 96-well deep plate. The reaction was stopped with the addition of one volume of 100% acetonitrile plus 0.1% formic acid and the appropriate internal standard. Then samples were centrifuged at 1100×g for 30 min at +4° C. and supernatants were transferred to a new 96-deepwell plate. Samples were evaporated under N2 and reconstituted in H2O/ACN 0.1% Formic Acid (98:2). Analysis was performed without a calibration curve (Acquity UPLC-Waters; Sciex API4000). Time 0 was obtained adding acetonitrile before addition of the test compound. […] The half-life (t1/2) expressed in hours is derived using Equation 1 as shown in Example 64.
# [6] = Stability in mouse hepatocytes; type: in vitro ADME
# Procedure: as §2
# [7] = human, plasma, Diastereoisomer A (upfield shift in 31P NMR), read-out: t1/2, Human Plasma, Diastereoisomer A (converted)
# [8] = human, plasma, Diastereoisomer B, read-out: t1/2, Human Plasma, Diastereoisomer B (converted)
# [9] = t1/2, Mouse Hepatocytes, Diastereoisomer A
# [10] = t1/2, Mouse Hepatocytes, Diastereoisomer B
SMILES,PANK2−/− CoA (Fold Increase): fold increase in Coenzyme A (CoA) levels relative to controls [1] [Fold Increase],Papp A→B at 60 min [2] [×10⁻⁶ cm/s],"half-life at 3 µM [3, 7] [min]","half-life at 3 µM [3, 8] [min]","half-life at 3 µM ([4]; mouse, plasma) [min]","t1/2, Mouse Plasma, Diastereoisomer B ([4]; mouse, plasma, 3 µM) [min]",half-life at 5 µM ([5]; Diastereoisomer A) [min],half-life at 5 µM ([5]; Diastereoisomer B) [min],"half-life at 5 µM [6, 9] [min]","half-life at 5 µM [6, 10] [min]","half-life at 3 µM ([3]; Diastereoisomer A (upfield shift in 31P NMR), read-out: t1/2, Human Plasma, Diastereoisomer A (converted)) [min]","t1/2, Human Plasma, Diastereoisomer B ([3]; Diastereoisomer B, 3 μM) [min]","half-life at 3 µM ([4]; Diastereoisomer A (upfield shift in 31P NMR), 3 μM, 37° C., mouse plasma, read-out: t1/2, Mouse Plasma, Diastereoisomer A) [min]","t1/2, Mouse Plasma, Diastereoisomer B ([4]; Diastereoisomer B, 3 μM, 37° C., mouse plasma) [min]","half-life ([5]; Diastereoisomer A (upfield shift in 31P NMR), read-out: t1/2, Human Hepatocytes, Diastereoisomer A (converted)) [min]","half-life ([5]; Diastereoisomer B, read-out: t1/2, Human Hepatocytes, Diastereoisomer B (converted)) [min]","half-life at 5 µM ([6]; Diastereoisomer A (upfield shift in 31P NMR), 5 μM, 1 million cells/ml, 37° C., mouse hepatocytes, read-out: t1/2, Mouse Hepatocytes, Diastereoisomer A (converted)) [min]","half-life at 5 µM ([6]; Diastereoisomer B, 5 μM, 1 million cells/ml, 37° C., mouse hepatocytes, read-out: t1/2, Mouse Hepatocytes, Diastereoisomer B (converted)) [min]"
"COC(=O)CCNC(=O)[C@@H]1O[P@@](=O)(OCN2C(=O)c3ccccc3S2(=O)=O)OCC1(C)C (single isomer, unassigned) [Compound No. 2-126]",138.56,2.74,,,,,,,,,,,,,,,,
"CC(C)OC(=O)OCO[P@@]1(=O)OCC(C)(C)[C@H](C(=O)NCCC(=O)O)O1 [2-130, 3-((2S,4R)-2-(((isopropoxycarbonyl)oxy)methoxy)-5,5-dimethyl-2-oxido-1,3,2-dioxaphosphinane-4-carboxamido)propanoic acid]",43.5,1.84,,,,,,,,,,,,,,,,
COC(=O)CCNC(=O)[C@@H]1OP(=O)(N[C@@H](Cc2ccc(OC(C)(C)C)cc2)C(=O)OC(C)(C)C)OCC1(C)C (stereo partly drawn) [compound 15],0.5,,> 60,> 60,< 9.6,<9.6,18.6,< 15,< 15,< 15,,,,,,,,
"COC(=O)CCNC(=O)[C@@H]1OP(=O)(N[C@@H](C)C(=O)OC[C@H]2CCC(=O)N2)OCC1(C)C (stereo partly drawn) [compound 23, methyl 3-((4R)-5,5-dimethyl-2-oxido-2-(((S)-1-oxo-1-(((R)-5-oxopyrrolidin-2-yl)methoxy)propan-2-yl)amino)-1,3,2-dioxaphosphinane-4-carboxamido)propanoate]",2.08,,< 9.6,57.6,< 9.6,<9.6,> 240,> 240,70.8,33,,,,,,,,
"COC(=O)CCNC(=O)[C@@H]1OP(=O)(N[C@@H](Cc2cccnc2)C(=O)OC)OCC1(C)C (stereo partly drawn) [compound 25, (2S)-methyl 2-(((4R)-4-((3-methoxy-3-oxopropyl)carbamoyl)-5,5-dimethyl-2-oxido-1,3,2-dioxaphosphinan-2-yl)amino)-3-(pyridin-3-yl)propanoate]",0.95,,> 60,,< 9.6,,> 240,,36,,,,,,,,,
"COC(=O)CCNC(=O)[C@@H]1OP(=O)(N[C@H](C)C(=O)OCCc2ccccc2)OCC1(C)C (stereo partly drawn) [compound 26, methyl 3-((4R)-5,5-dimethyl-2-oxido-2-(((R)-1-oxo-1-phenethoxypropan-2-yl)amino)-1,3,2-dioxaphosphinane-4-carboxamido)propanoate]",2.29,,> 60,> 60,< 9.6,<9.6,18.6,< 15,< 15,< 15,,,,,,,,
"COC(=O)CCNC(=O)[C@@H]1OP(=O)(N[C@@H](Cc2cncs2)C(=O)OCc2ccccc2)OCC1(C)C (stereo partly drawn) [compound 29, benzyl (2S)-2-(((4R)-4-((3-methoxy-3-oxopropyl)carbamoyl)-5,5-dimethyl-2-oxido-1,3,2-dioxaphosphinan-2-yl)amino)-3-(thiazol-5-yl)propanoate]",1.17,,> 60,> 60,< 9.6,<9.6,36,15.6,< 15,< 15,,,,,,,,
"COC(=O)CCNC(=O)[C@@H]1OP(=O)(OC(C)OC(=O)c2ccccc2)OCC1(C)C (stereo partly drawn) [compound 98, 1-(((4R)-4-((3-methoxy-3-oxopropyl)carbamoyl)-5,5-dimethyl-2-oxido-1,3,2-dioxaphosphinan-2-yl)oxy)ethyl benzoate]",4.01,,> 60,18,< 9.6,<9.6,< 15,< 15,< 15,< 15,,,,,,,,
"COC(=O)CCNC(=O)[C@@H]1OP(=O)(NCC(=O)OCc2ccccc2)OCC1(C)C (stereo partly drawn) [compound 118, methyl 3-((4R)-2-((2-(benzyloxy)-2-oxoethyl)amino)-5,5-dimethyl-2-oxido-1,3,2-dioxaphosphinane-4-carboxamido) propanoate]",2.96,,,,,,,,,,> 60,>60,< 9.6,<9.6,25.8,< 15,< 15,< 15
